Patent US20100041089A1, “IMPROVED METHOD FOR DETECTING CHEMICAL […]” (priority 2006, published 2010)

Test system: yeast genes (expressed mRNA)
Experiment: DNA chip measurement of expressed mRNA of yeast genes after culture with a toxic chemical substance
Assay type: cell-based, Saccharomyces cerevisiae S288C
Settings: for level of expressed mRNA in the presence of chemical substance / level in the absence of chemical substance: cultured two hours with the chemical substance; for The level of expressed mRNA in the presence of chemical substance/The level of expressed mRNA in the absence of chemical substance: cultured two hours with substance
Experimental: Yeast (Saccharomyces cerevisiae S288C (a SUC2mal mel gap2 CUP1)) were cultured at 25° C. on YPD medium (yeast extract 1%, polypeptone 2%, glucose 2%). One of toxic chemical substances was added to the cell at logarithmic growth phase, and the cell was further cultured for two hours. Cell was cultured without any chemical substance in the same condition, and was used as a control. Concentrations of the chemical substances were defined to inhibit the growth of the yeast but not lead to death.
After the completion of cultivation, the culture was centrifuged to collect the cells. To the cells, sodium acetate buffer (50 mM sodium acetate, 10 mM EDTA, 1% SDS) was added, and the mixture was shaken at 65° C. for five minutes, followed by returning to room temperature, and obtaining the supernatant, which procedure was repeated two times. To the supernatant, ½ amount of a solution of phenol/chloroform (1:1) was added, and the mixture was centrifuged to give a supernatant, an equal amount of chloroform was added, and the mixture was centrifuged to give a supernatant. To the supernatant, an equal amount of isopropanol containing 0.3 M sodium acetate was added, and the mixture was allowed to stand at room temperature for 30 minutes, after which the mixture was centrifuged to give sediment of the whole RNAs. Seventy % ethanol was added to the sediment, and the mixture was again centrifuged to give sediment, which was then dried and dissolved in water. mRNA was isolated from the whole RNAs as followings. In view of the fact that a poly A chain is attached to the 3′ terminus of mRNA, a polynucleotide having a poly T structure which was immobilized on the surface of latex beads was used to trap the mRNA, and then the mRNA was washed and eluted with spine column (Oligotex-dT30<Super>mRNA Purification Kit, Takara). Reverse transcription of the mRNA was conducted with a reverse transcriptase (Super Script II Reverse Transcriptase; catalogue No. 18064-014, GibcoBRL) using fluorescence-labeled nucleotides to give cDNAs that were introduced with Cy3-dUTP or Cy5-dUTP during the reverse transcription.
The labeled cDNAs were dissolved in TE buffer (10 mM Tris-HCl/1 mM EDTA, pH 8.0), and the solution was dropped on the DNA chip containing the whole genes of yeast (DNA Chip Research Inc. Japan) so that the cDNAs were hybridized on the DNA chip at 65° C. for over 12 hours. The fluoresces intensity of the DNA chip was read with a scanner, and the ratio relative to the fluorescence intensity resulting from the absence of chemical substance was estimated as the following, which is shown in Tables 1 to 9.
In the Tables, “Intensity” indicated in the rightmost column is a value of the level of expressed mRNA of each gene in control cells as divided by the average level of the expressions of the whole genes. A gene of which mRNA level is lower in control, and is higher in cases of addition of chemical substance, is especially useful in the detection of toxic substances.
Here, when a ratio of an amount of mRNA expressed in the presence of the chemical substance to an amount of mRNA expressed in the absence of the chemical substance is two or more, then it is considered significant.

## [Cl][Cd][Cl] [(2), CdCl2]
Yeast gene YDR128W
  level of expressed mRNA in the presence of chemical substance / level in the absence of chemical substance: 3.9
Yeast gene YDR133C
  level of expressed mRNA in the presence of chemical substance / level in the absence of chemical substance: 1.1
Yeast gene YDR250C
  level of expressed mRNA in the presence of chemical substance / level in the absence of chemical substance: 1.4
Yeast gene YDR278C
  level of expressed mRNA in the presence of chemical substance / level in the absence of chemical substance: 3.2
Yeast gene YDR281C
  level of expressed mRNA in the presence of chemical substance / level in the absence of chemical substance: 2.6
Yeast gene YDR330W
  The level of expressed mRNA in the presence of chemical substance/The level of expressed mRNA in the absence of chemical substance: 1.5
Yeast gene YDR366C
  level of expressed mRNA in the presence of chemical substance / level in the absence of chemical substance: 2.0
Yeast gene YDR411C
  The level of expressed mRNA in the presence of chemical substance/The level of expressed mRNA in the absence of chemical substance: 2.8
Yeast gene YDR511W
  The level of expressed mRNA in the presence of chemical substance/The level of expressed mRNA in the absence of chemical substance: 1.7
Yeast gene YDR545W
  The level of expressed mRNA in the presence of chemical substance/The level of expressed mRNA in the absence of chemical substance: 1.2
Yeast gene YEL001C
  The level of expressed mRNA in the presence of chemical substance/The level of expressed mRNA in the absence of chemical substance: 1.0
Yeast gene YER004W
  The level of expressed mRNA in the presence of chemical substance/The level of expressed mRNA in the absence of chemical substance: 1.5
Yeast gene YER035W
  The level of expressed mRNA in the presence of chemical substance/The level of expressed mRNA in the absence of chemical substance: 1.6
Yeast gene YER079W
  The level of expressed mRNA in the presence of chemical substance/The level of expressed mRNA in the absence of chemical substance: 1.6
Yeast gene YER106W
  The level of expressed mRNA in the presence of chemical substance/The level of expressed mRNA in the absence of chemical substance: 0.7
Yeast gene YER158C
  The level of expressed mRNA in the presence of chemical substance/The level of expressed mRNA in the absence of chemical substance: 0.9
Yeast gene YER163C
  The level of expressed mRNA in the presence of chemical substance/The level of expressed mRNA in the absence of chemical substance: 2.4
Yeast gene YER175C
  The level of expressed mRNA in the presence of chemical substance/The level of expressed mRNA in the absence of chemical substance: 1.2
Yeast gene YFL006W
  The level of expressed mRNA in the presence of chemical substance/The level of expressed mRNA in the absence of chemical substance: 2.8
Yeast gene YFL010C
  The level of expressed mRNA in the presence of chemical substance/The level of expressed mRNA in the absence of chemical substance: 4.8
Yeast gene YFL024C
  The level of expressed mRNA in the presence of chemical substance/The level of expressed mRNA in the absence of chemical substance: 1.1
Yeast gene YFL032W
  The level of expressed mRNA in the presence of chemical substance/The level of expressed mRNA in the absence of chemical substance: 1.5
Yeast gene YFR026C
  level of expressed mRNA in the presence of chemical substance / level in the absence of chemical substance: 2.0
Yeast gene YGL037C
  The level of expressed mRNA in the presence of chemical substance/The level of expressed mRNA in the absence of chemical substance: 2.7
Yeast gene YGL047W
  The level of expressed mRNA in the presence of chemical substance/The level of expressed mRNA in the absence of chemical substance: 1.9
Yeast gene YGL053W
  The level of expressed mRNA in the presence of chemical substance/The level of expressed mRNA in the absence of chemical substance: 1.5
Yeast gene YGL088W
  level of expressed mRNA in the presence of chemical substance / level in the absence of chemical substance: 2.1
Yeast gene YGL121C
  The level of expressed mRNA in the presence of chemical substance/The level of expressed mRNA in the absence of chemical substance: 5.0
Yeast gene YGL199C
  The level of expressed mRNA in the presence of chemical substance/The level of expressed mRNA in the absence of chemical substance: 1.7
Yeast gene YGR038W
  level of expressed mRNA in the presence of chemical substance / level in the absence of chemical substance: 1.2
Yeast gene YGR101W
  The level of expressed mRNA in the presence of chemical substance/The level of expressed mRNA in the absence of chemical substance: 1.3
Yeast gene YGR110W
  The level of expressed mRNA in the presence of chemical substance/The level of expressed mRNA in the absence of chemical substance: 3.1
Yeast gene YGR130C
  The level of expressed mRNA in the presence of chemical substance/The level of expressed mRNA in the absence of chemical substance: 0.7
Yeast gene YGR139W
  level of expressed mRNA in the presence of chemical substance / level in the absence of chemical substance: 3.7
Yeast gene YGR154C
  The level of expressed mRNA in the presence of chemical substance/The level of expressed mRNA in the absence of chemical substance: 2.9
Yeast gene YGR221C
  The level of expressed mRNA in the presence of chemical substance/The level of expressed mRNA in the absence of chemical substance: 2.2
Yeast gene YGR243W
  level of expressed mRNA in the presence of chemical substance / level in the absence of chemical substance: 2.2
Yeast gene YGR293C
  level of expressed mRNA in the presence of chemical substance / level in the absence of chemical substance: 1.9
Yeast gene YHL006C
  level of expressed mRNA in the presence of chemical substance / level in the absence of chemical substance: 1.4
Yeast gene YHR095W
  level of expressed mRNA in the presence of chemical substance / level in the absence of chemical substance: 2.6
Yeast gene YHR105W
  level of expressed mRNA in the presence of chemical substance / level in the absence of chemical substance: 0.8
Yeast gene YHR138C
  The level of expressed mRNA in the presence of chemical substance/The level of expressed mRNA in the absence of chemical substance: 1.8
Yeast gene YHR181W
  level of expressed mRNA in the presence of chemical substance / level in the absence of chemical substance: 0.7
Yeast gene YHR199C
  The level of expressed mRNA in the presence of chemical substance/The level of expressed mRNA in the absence of chemical substance: 2.0
Yeast gene YIL023C
  The level of expressed mRNA in the presence of chemical substance/The level of expressed mRNA in the absence of chemical substance: 1.2
Yeast gene YIL041W
  The level of expressed mRNA in the presence of chemical substance/The level of expressed mRNA in the absence of chemical substance: 1.2
Yeast gene YIL087C
  The level of expressed mRNA in the presence of chemical substance/The level of expressed mRNA in the absence of chemical substance: 1.9
Yeast gene YIL127C
  level of expressed mRNA in the presence of chemical substance / level in the absence of chemical substance: 4.8
Yeast gene YJL017W
  level of expressed mRNA in the presence of chemical substance / level in the absence of chemical substance: 1.7
Yeast gene YJL037W
  level of expressed mRNA in the presence of chemical substance / level in the absence of chemical substance: 1.4
Yeast gene YJL057C
  The level of expressed mRNA in the presence of chemical substance/The level of expressed mRNA in the absence of chemical substance: 1.2
Yeast gene YJL066C
  The level of expressed mRNA in the presence of chemical substance/The level of expressed mRNA in the absence of chemical substance: 1.2
Yeast gene YJL082W
  The level of expressed mRNA in the presence of chemical substance/The level of expressed mRNA in the absence of chemical substance: 0.8
